Measurements as given in patent US20230190754A1, “Therapeutic combinations for the treatment of Progressive Fibrosing interstitial lung diseases” (Boehringer Ingelheim International GmbH, priority 2021, published 2023).
“And” between values parts separate entries of the source, which are not always exact repeats. Equal entries are not always repeated.

Key:
[1] = system: IPF patients; assay: Phase II clinical trial in IPF patients: change from baseline in Forced Vital Capacity (FVC) over 12 weeks (MMRM); type: in vivo, human; settings: 18 mg b.i.d.
[2] = system: IPF patients; assay: Phase II clinical trial in IPF patients: completion / premature discontinuation of observation and treatment period; type: in vivo, human; settings: 18 mg b.i.d.
Experimental: The participants were divided into 2 groups by chance (the “active agent group” and the “placebo group”). […] One 12 mg placebo tablet and one 6 mg placebo tablet (both containing no active ingredient, see Table 1) was administered orally to the patients of the second group twice daily (b.i.d.).
The “active agent group” and the “placebo group” were further distributed to two different groups regarding background medication: the “AF-group” (“antifibrotic background medication group”) and the “Non-AF-group” (“no antifibrotic background medication group”). […] The combination of both nintedanib and pirfenidone as background medication was not allowed in the “AF-group”.
The trial was a randomised, double-blind, placebo-controlled parallel group study.

[3] = system: human lung fibroblasts; settings: combination with nintedanib; cited from earlier work
[4] = system: PDE4 subtypes, A-D; settings: cited from earlier work
[5] = AF-group (antifibrotic background), listed as Comp. of Form. III
[6] = AF-group (antifibrotic background), listed as active agent
[7] = AF-group, nintedanib background
[8] = AF-group, pirfenidone background
[9] = pooled background therapy (Non-AF+AF)
[10] = AF-group (antifibrotic background)

In the case of `[O-][S@+]1CCc2nc(N3CCC(c4ncc(Cl)cn4)CC3)nc(NC3(CO)CCC3)c21` [Comp. of form. III], the “Adjusted mean change from baseline in FVC to week 12 (MMRM)” value (“Adjusted mean change from baseline” below) [1, 5] is reported as 2.72 mL, the “Adjusted mean difference vs. Placebo in change from baseline in FVC to week 12 (MMRM)” value [1, 5] is reported as 80.4 mL and 80.42 mL and the “Adjusted mean change from baseline” value [1, 6] is reported as “+2.72 ml”. The “Adjusted mean difference vs. Placebo in change from baseline in FVC to week 12 (MMRM)” value [1, 6] was 80.42 mL, the “Adjusted mean change from baseline” value [1, 7] was 23.41 mL and the “Adjusted mean difference vs. Placebo in change from baseline in FVC to week 12 (MMRM)” value [1, 7] was 105.43 mL. The “Week 12 Mean FVC” value [1, 7] was 2787.37 mL, the “Adjusted mean change from baseline” value ([1]; AF-group, nintedanib background, listed as PDE4-inhibitor of formula III) was “+23.41 ml” and the “Adjusted mean change from baseline” value [1, 8] was -18.76 mL. For the same molecule, the “Adjusted mean difference vs. Placebo in change from baseline in FVC to week 12 (MMRM)” value [1, 8] was 61.30 mL, the “Week 12 Mean FVC” value [1, 8] was 2879.35 mL and the “Adjusted mean change from baseline” value ([1]; AF-group, pirfenidone background, listed as PDE4-inhibitor of formula III) was -18.67 mL. The “Adjusted mean change from baseline” value ([1]; Non-AF-group) was 6.10 mL, the “Adjusted mean difference vs. Placebo in change from baseline in FVC to week 12 (MMRM)” value ([1]; Non-AF-group) was 101.7 mL and 101.72 mL and the “Adjusted mean difference vs. Placebo in change from baseline in FVC to week 12 (MMRM)” value ([1]; Non-AF-group, listed as PDE4-inhibitor of formula III) was 101.72 mL. For the same molecule, the “Adjusted mean difference vs. Placebo in change from baseline in FVC to week 12 (MMRM)” value ([1]; Non-AF-group, listed as active agent) was 101.72 mL, the “Adjusted mean change from baseline” value [1, 9] was 4.59 mL and the “Adjusted mean difference vs. Placebo in change from baseline in FVC to week 12 (MMRM)” value [1, 9] was 88.38 mL. The “Adjusted mean change from baseline” value ([1]; pooled background therapy (Non-AF+AF), listed as active agent) was -4.59 mL, the “Not completed planned treatment period (premature discontinuation), patients %” value [2, 10] was 20.4% and the “Not completed planned treatment period (premature discontinuation), patients N” value [2, 10] was 10. The “Observation period not completed: Death, patients %” value [2, 10] was 2.0%, the “Observation period not completed: Death, patients N” value [2, 10] was 1 and the “Treatment period not completed: Adverse Event, patients %” value [2, 10] was 20.4%. For the same molecule, the “Treatment period not completed: Adverse Event, patients N” value [2, 10] was 10, the “Not completed planned treatment period (premature discontinuation), patients %” value ([2]; Non-AF-group) was 10.4% and the “Not completed planned treatment period (premature discontinuation), patients N” value ([2]; Non-AF-group) was 5. The “Observation period not completed: Death, patients %” value ([2]; Non-AF-group) was 2.1%, the “Observation period not completed: Death, patients N” value ([2]; Non-AF-group) was 1 and the “Treatment period not completed: Adverse Event, patients %” value ([2]; Non-AF-group) was 6.3%. For the same molecule, the “Treatment period not completed: Adverse Event, patients N” value ([2]; Non-AF-group) was 3, the “Effect on fibroblast proliferation (in words)” value [3] was “synergistic overadditive effect” and the “Preferential enzymatic inhibition among the PDE4 subtypes (in words)” value [4] was “inhibit preferentially the PDE4 B subtype”.
